# According to US20190210996A1, “NOVEL COMPOUNDS” (GLAXOSMITHKLINE INTELLECTUAL PROPERTY DEVELOPMENT LIMITED, priority 2016, published 2019):
# Legend:
# Format in all cases: cell-based
# ABL1 = target: T1, ABL1 (Homo sapiens, UniProt P00519); assay: Expression proteomics in THP-1 cells: ABL1 protein level; settings: ABL1, THP-1 cells
# T1 construct: endogenous in cells; host or cells: THP-1
# Experimental: (§1) THP-1 cells were seeded at a concentration of 3×10^6 cells in T175 flasks with 60 mL growth medium (RPMI1640+10% FBS). […] of a 10× compound solution prepared in growth medium (DMSO), CEREBLON_PROTAC) was added and the cells were treated for the indicated time points (6 or 24 h) at 37° C., 5% CO2. For harvesting the cells were collected into falcon tubes on ice, centrifuged and washed twice in cold PBS (Life technologies). After the last washing step the supernatant was removed and the pellets were snap-frozen in liquid N2 and stored at −80° C. and lysed in 2% SDS for 3 min at 95° C. in a thermomixer (Thermo Fisher Scientific), followed by digestion of DNA with Benzonase at 37° C. for 1.5 h. Lysate was cleared by centrifugation an protein concentration in supernatant was determined by BCA assay.
# (§2) Leukemia 25, 89-100 (2011).
# (§3) Samples were dried in vacuo and resuspended in 0.05% trifluoroacetic acid in water. Of the sample, 50% was injected into an Ultimate3000 nanoRLSC (Dionex, Sunnyvale, Calif.) coupled to a Q Exactive HF (Thermo Fisher Scientific). Peptides were trapped on a 5 mm×300 μm C18 column (Pepmap100, 5 μm, 300 Å, Thermo Fisher Scientific) in water with 0.05% TFA at 60° C. Separation was performed on custom 50 cm×[…] (ID) reversed-phase columns (Reprosil) at 55° C. Gradient elution was performed from 2% acetonitrile to 40% acetonitrile in 0.1% formic acid and 3.5% DMSO over 2 hours. Samples were online injected into Q-Exactive HF mass spectrometers operating with a data-dependent top 10 method. MS spectra were acquired by using 60.000 resolution and an ion target of 3×10^6. Higher energy collisional dissociation (HCD) scans were performed with 35% NCE at 30.000 resolution (at m/z 200), and the ion target settings was set to 2×10^5 so as to avoid coalescence (Werner, T. et al. Ion Coalescence of Neutron Encoded TMT 10-Plex Reporter Ions. Anal. Chem. 86, 3594-3601 (2014).
# (§4) The first search was performed with 30 parts per million mass tolerance for peptide precursors and 30 mD (HCD) mass tolerance for fragment ions followed by a final search using recalibrated data with a 10 parts per million mass tolerance for peptide precursors and 20 mD (HCD) mass tolerance for fragment ions. Carbamidomethylation of cysteine residues and TMT modification of lysine residues were set as fixed modifications and methionine oxidation, and N-terminal acetylation of proteins and TMT modification of peptide N-termini were set as variable modifications. […]
# (§5) Nat Biotech 29, 255-265 (2011). this measure is referred to as ion area Savitski, M. M. et al. Delayed Fragmentation and Optimized Isolation Width Settings for Improvement of Protein Identification and Accuracy of Isobaric Mass Tag Quantification on Orbitrap-Type Mass Spectrometers. […]
# PTK2 = target: T2, PTK2 (Homo sapiens, UniProt Q05397); assay: Expression proteomics in THP-1 cells: PTK2 protein level; settings: PTK2, THP-1 cells
# T2 construct: endogenous in cells; host or cells: THP-1
# T2 sequence (Q05397 whole entry): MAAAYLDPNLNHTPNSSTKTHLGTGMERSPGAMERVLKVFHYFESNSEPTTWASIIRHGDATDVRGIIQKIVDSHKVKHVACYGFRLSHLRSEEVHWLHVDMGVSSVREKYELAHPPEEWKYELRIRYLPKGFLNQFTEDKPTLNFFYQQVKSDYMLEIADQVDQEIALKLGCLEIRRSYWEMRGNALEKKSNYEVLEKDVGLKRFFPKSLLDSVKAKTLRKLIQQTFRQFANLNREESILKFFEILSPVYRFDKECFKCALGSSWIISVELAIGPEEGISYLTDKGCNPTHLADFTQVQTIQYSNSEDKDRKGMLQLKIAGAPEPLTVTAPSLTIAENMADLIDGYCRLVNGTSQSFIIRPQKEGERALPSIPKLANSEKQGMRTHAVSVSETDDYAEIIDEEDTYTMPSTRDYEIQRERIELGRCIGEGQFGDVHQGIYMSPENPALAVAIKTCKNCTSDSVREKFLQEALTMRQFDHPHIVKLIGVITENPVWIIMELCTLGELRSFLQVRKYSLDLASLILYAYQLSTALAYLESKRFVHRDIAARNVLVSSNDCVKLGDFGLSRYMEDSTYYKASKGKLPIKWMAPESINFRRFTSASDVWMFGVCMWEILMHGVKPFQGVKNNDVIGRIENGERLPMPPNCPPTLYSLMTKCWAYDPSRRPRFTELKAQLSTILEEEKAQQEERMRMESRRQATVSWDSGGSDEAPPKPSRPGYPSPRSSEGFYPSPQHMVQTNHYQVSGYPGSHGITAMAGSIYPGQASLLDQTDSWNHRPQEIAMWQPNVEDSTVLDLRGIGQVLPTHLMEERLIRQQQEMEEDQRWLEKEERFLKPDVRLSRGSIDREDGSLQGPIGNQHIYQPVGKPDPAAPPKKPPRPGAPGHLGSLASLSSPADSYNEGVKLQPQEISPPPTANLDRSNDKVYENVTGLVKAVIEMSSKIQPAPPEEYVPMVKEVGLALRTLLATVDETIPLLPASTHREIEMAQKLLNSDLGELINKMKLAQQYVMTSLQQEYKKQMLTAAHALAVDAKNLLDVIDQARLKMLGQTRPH
# Experimental: as §1, §2, §3, §4, §5
# RPS6KA3 = target: T3, RPS6KA3 (Homo sapiens, UniProt P51812); assay: Expression proteomics in THP-1 cells: RPS6KA3 protein level; settings: RPS6KA3, THP-1 cells
# T3 construct: endogenous in cells; host or cells: THP-1
# T3 sequence (P51812 whole entry): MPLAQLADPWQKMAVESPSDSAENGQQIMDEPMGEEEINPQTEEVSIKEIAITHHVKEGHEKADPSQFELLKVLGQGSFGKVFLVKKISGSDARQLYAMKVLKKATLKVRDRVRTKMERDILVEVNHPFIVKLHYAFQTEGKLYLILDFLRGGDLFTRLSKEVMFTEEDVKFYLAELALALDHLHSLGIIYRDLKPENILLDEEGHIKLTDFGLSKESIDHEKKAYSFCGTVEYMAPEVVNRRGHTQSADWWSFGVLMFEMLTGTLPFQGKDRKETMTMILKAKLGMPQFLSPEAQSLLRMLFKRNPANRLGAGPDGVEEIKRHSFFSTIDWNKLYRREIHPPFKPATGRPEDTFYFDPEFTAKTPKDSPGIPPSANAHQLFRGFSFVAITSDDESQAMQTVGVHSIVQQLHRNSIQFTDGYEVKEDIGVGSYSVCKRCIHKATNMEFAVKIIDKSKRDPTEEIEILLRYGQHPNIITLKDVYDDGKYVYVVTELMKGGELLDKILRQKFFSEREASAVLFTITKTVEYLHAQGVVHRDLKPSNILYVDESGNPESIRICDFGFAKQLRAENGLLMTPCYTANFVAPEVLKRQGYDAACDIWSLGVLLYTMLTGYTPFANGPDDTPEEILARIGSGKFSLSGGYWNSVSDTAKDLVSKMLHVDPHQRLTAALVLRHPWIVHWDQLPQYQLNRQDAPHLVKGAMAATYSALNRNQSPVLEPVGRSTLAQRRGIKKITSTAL
# Experimental: as §1, §2, §3, §4, §5
# TEC = target: T4, TEC (Homo sapiens, UniProt P42680); assay: Expression proteomics in THP-1 cells: TEC protein level
# T4 construct: endogenous in cells; host or cells: THP-1
# T4 sequence (P42680 1-631): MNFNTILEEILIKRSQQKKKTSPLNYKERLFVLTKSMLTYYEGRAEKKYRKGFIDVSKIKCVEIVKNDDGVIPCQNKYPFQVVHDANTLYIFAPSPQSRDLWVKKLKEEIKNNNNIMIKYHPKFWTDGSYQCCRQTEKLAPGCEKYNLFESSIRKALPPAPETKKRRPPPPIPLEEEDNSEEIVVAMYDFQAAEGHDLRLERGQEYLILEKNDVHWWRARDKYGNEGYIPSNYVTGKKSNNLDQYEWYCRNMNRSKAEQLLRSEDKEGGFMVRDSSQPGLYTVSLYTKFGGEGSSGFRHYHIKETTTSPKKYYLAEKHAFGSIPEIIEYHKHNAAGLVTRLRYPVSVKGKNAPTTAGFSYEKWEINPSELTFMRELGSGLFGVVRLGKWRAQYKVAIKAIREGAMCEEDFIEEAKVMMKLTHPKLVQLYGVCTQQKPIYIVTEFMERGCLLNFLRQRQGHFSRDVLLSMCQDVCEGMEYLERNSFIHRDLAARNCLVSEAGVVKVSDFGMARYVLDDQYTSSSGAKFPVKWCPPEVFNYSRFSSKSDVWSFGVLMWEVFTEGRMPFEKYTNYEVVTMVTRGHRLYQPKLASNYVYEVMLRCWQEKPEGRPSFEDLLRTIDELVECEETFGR
# Experimental: as §1, §2, §3, §4, §5
# PRKAA1 = target: T5, PRKAA1 (Homo sapiens, UniProt Q13131); assay: Expression proteomics in THP-1 cells: PRKAA1 protein level; settings: PRKAA1, THP-1 cells
# T5 construct: endogenous in cells; host or cells: THP-1
# T5 sequence (Q13131 whole entry): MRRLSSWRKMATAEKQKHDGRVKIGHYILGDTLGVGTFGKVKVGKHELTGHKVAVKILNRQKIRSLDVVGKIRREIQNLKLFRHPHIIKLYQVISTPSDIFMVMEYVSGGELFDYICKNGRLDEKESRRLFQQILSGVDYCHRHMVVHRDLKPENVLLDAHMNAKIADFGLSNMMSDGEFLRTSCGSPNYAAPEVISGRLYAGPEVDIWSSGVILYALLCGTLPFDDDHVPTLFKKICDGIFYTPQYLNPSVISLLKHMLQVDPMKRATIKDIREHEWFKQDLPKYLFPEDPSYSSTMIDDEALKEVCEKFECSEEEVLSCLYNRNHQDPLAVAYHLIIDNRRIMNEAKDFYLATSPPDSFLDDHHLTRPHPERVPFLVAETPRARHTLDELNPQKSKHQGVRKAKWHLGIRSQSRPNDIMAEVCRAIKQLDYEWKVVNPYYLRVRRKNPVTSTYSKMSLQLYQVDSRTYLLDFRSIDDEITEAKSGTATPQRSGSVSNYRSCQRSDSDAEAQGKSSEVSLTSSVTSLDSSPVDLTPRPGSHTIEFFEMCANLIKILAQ
# T5 sequence (Q9Y478 2-270 partner limits assumed): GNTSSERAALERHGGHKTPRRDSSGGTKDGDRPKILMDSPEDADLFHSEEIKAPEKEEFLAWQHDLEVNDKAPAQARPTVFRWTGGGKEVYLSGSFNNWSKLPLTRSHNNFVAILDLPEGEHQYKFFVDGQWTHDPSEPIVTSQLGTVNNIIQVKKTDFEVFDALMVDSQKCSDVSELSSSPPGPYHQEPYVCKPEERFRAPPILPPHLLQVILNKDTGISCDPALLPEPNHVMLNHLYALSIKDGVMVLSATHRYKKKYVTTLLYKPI
# T5 sequence (P54619 whole entry partner): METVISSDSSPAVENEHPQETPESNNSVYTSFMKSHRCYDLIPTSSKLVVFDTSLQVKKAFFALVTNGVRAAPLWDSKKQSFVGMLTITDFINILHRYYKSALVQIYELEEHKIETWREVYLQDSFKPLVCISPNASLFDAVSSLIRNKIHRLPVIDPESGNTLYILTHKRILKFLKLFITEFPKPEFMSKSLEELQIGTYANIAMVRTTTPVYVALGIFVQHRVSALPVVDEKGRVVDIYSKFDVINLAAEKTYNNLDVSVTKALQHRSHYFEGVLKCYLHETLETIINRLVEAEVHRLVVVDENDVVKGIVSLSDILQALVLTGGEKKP
# Experimental: as §1, §2, §3, §4, §5
# AURKB = target: T6, AURKB (Homo sapiens, UniProt Q96GD4); assay: Expression proteomics in THP-1 cells: AURKB protein level
# T6 construct: endogenous in cells; host or cells: THP-1
# T6 sequence (Q96GD4 whole entry): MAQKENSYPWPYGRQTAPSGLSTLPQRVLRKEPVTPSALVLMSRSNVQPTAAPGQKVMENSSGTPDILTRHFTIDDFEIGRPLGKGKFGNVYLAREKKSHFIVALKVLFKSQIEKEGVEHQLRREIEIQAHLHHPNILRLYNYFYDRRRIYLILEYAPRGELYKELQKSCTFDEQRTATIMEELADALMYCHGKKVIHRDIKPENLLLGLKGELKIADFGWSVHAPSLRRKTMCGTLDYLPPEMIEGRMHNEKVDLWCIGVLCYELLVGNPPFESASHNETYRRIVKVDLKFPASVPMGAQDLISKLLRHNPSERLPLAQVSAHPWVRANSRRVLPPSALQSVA
# Experimental: as §1, §2, §3, §4, §5
# T1 sequence (P00519 whole entry): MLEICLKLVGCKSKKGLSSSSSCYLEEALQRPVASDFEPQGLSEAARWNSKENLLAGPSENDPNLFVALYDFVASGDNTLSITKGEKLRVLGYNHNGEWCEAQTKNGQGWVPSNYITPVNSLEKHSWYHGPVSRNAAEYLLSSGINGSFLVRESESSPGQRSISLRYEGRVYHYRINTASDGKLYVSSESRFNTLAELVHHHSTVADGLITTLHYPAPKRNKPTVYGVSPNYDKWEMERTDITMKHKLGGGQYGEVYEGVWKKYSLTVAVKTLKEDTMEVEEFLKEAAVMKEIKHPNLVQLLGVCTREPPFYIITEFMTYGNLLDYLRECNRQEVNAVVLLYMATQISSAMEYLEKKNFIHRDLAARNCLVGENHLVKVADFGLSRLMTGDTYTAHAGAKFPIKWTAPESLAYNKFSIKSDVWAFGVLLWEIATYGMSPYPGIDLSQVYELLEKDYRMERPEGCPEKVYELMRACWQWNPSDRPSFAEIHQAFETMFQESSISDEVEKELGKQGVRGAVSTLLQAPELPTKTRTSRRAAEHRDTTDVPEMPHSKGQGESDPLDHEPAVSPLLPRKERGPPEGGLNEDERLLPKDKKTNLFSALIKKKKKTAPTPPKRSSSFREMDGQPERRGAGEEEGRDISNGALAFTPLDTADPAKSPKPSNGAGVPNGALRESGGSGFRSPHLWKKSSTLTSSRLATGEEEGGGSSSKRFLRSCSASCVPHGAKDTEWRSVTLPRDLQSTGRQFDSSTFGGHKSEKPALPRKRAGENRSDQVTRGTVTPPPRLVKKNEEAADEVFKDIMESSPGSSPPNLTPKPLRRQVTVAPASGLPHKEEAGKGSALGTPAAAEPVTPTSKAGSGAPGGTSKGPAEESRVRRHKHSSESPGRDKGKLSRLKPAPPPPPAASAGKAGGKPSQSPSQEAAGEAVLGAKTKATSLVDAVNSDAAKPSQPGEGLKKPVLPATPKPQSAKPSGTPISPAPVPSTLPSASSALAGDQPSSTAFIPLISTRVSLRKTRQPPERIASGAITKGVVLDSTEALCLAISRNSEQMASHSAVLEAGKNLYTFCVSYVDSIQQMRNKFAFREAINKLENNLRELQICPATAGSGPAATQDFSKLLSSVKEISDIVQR
smiles,measurement,setting,value
"CNC(=O)c1ccccc1Nc1nc(Nc2ccc(N3CCN(CCOCCOCCOCCOCC(=O)Nc4cccc5c4CN(C4CCC(=O)NC4=O)C5=O)CC3)cc2)ncc1Cl.O=CO (stereo not drawn) [CEREBLON_PROTAC, 14-(4-(4-((5-Chloro-4-((2-(methylcarbamoyl)phenyl)amino)pyrimidin-2-yl)amino)phenyl)piperazin-1-yl)-N-(2-(2,6-dioxopiperidin-3-yl)-1-oxoisoindolin-4-yl)-3,6,9,12-tetraoxatetradecan-1-amide formate]",log2 rel. fc. to vehicle control,"ABL1; 24 h 0.1 μM, n = 1",−0.72
same,log2 rel. fc. to vehicle control,"ABL1; 24 h 0.1 μM, n = 2",−0.70
same,log2 rel. fc. to vehicle control,"ABL1; 24 h 1 μM, n = 1",−1.43
same,log2 rel. fc. to vehicle control,"ABL1; 24 h 1 μM, n = 2",−1.63
same,log2 rel. fc. to vehicle control,"PTK2; 24 h 0.1 μM, n = 1",−2.29
same,log2 rel. fc. to vehicle control,"PTK2; 24 h 0.1 μM, n = 2",−2.92
same,log2 rel. fc. to vehicle control,"PTK2; 24 h 1 μM, n = 1",−2.42
same,log2 rel. fc. to vehicle control,"PTK2; 24 h 1 μM, n = 2",−2.20
same,log2 rel. fc. to vehicle control,"RPS6KA3; 24 h 0.1 μM, n = 1",−0.74
same,log2 rel. fc. to vehicle control,"RPS6KA3; 24 h 0.1 μM, n = 2",−0.72
same,log2 rel. fc. to vehicle control,"RPS6KA3; 24 h 1 μM, n = 1",−1.12
same,log2 rel. fc. to vehicle control,"RPS6KA3; 24 h 1 μM, n = 2",−1.11
same,log2 rel. fc. to vehicle control,"TEC; 24 h 0.1 μM, n = 1",−1.83
same,log2 rel. fc. to vehicle control,"TEC; 24 h 0.1 μM, n = 2",−2.38
same,log2 rel. fc. to vehicle control,"TEC; 24 h 1 μM, n = 1",−1.74
same,log2 rel. fc. to vehicle control,"TEC; 24 h 1 μM, n = 2",−1.94
same,log2 rel. fc. to vehicle control,"PRKAA1; 24 h 0.1 μM, n = 1",−0.38
same,log2 rel. fc. to vehicle control,"PRKAA1; 24 h 0.1 μM, n = 2",−0.74
same,log2 rel. fc. to vehicle control,"PRKAA1; 24 h 1 μM, n = 1",−1.06
same,log2 rel. fc. to vehicle control,"PRKAA1; 24 h 1 μM, n = 2",−1.35
same,log2 rel. fc. to vehicle control,"AURKB; 24 h 0.1 μM, n = 1",−1.75
same,log2 rel. fc. to vehicle control,"AURKB; 24 h 0.1 μM, n = 2",−1.44
same,log2 rel. fc. to vehicle control,"AURKB; 24 h 1 μM, n = 1",−0.83
same,log2 rel. fc. to vehicle control,"AURKB; 24 h 1 μM, n = 2",−1.33
